The values that follow come from PMC6025407, “Asperversins A and B, Two Novel Meroterpenoids with an Unusual 5/6/6/6 Ring from the Marine-Derived Fungus Aspergillus versicolor” (Marine Drugs, 2018).

≈ marks a conversion by molar mass, not a printed value. Like-named read-outs stand apart in the source and are kept apart here. A value given as a limit tells only on which side of the number the result lay.

Broadly, the IC50 is the concentration that gives 50% inhibition. As a reminder, the MIC is the lowest concentration that inhibits growth of the organism.

For data set [1], the target named is human recombinant AChE (Homo sapiens, UniProt P22303). Description: biochemical. As to conditions: for inhibition at 100 µM: AChE, read-out: Inhibitory Ratio at 100 μM; for IC50: read-out: IC50 Value against AChE. The procedure:
Briefly, 20 µL AChE (0.05 U/mL) and 20 µL different concentrations of compounds (0.1 M phosphate buffer, pH 8.0) containing 0.1% Triton X-100) were pre-incubated at 37 °C for 30 min, then 160 µL of the assay solution which consisted of a 0.1 M phosphate buffer pH 8.0, with the addition of 600 µM 5,5’-dithio-bis (2-nitrobenzoic acid) and 550 µM acetylthiocholine iodide (ATCh) were added in the 96-well plates. The absorbance value at 425 nm was recorded for 15 min and enzyme activity was calculated from the slope of the obtained linear trend. The reaction rates were compared and the % inhibition due to the presence of tested inhibitors was calculated. Each concentration was analyzed in triplicate, and IC50 values were determined graphically from log concentration inhibition curves (Graphpad Prism 5, GraphPad Software Inc., San Diego, CA, USA).

Data set [2] in a line: in vitro. The settings on record: human, A549 cells. The procedure: Four human cancer cell lines (A549, MCF-7, HepG2, and HL-60 cells), together with one noncancerous cell line, the human bronchial epithelial cells Beas-2B, were used in the cytotoxic activity assay. […]
medium (HyClone, Logan, UT, USA), supplemented with 10% fetal bovine serum (HyClone) at 37 °C in a humidified atmosphere with 5% CO 2 . The cell survival assay was performed using the MTT method. Briefly, 100 μ L of a suspension of the adherent cells was seeded into each well of the 96 - well culture plates and allowed to adhere for 12 h before addition of the test compounds. The suspended cells were seeded at an initial density of 1 × 10^5 cells/mL immediately before the addition of the drug. Each tumor cell line was exposed for 48 h in triplicate to the test compounds at concentrations […]
positive controls. After incubation, culture supernatants were removed and exchanged with medium containing 0.5 mg/mL MTT. Then, the cells were incubated for 4 h at 37 °C in darkness , followed by the removal of the medium and adding 100 μ L dimethyl sulfoxide. The absorbance at 570 nm was detected and the data were expressed as the mean percentage of absorbance in treated vs. control cells.

The nature of data set [3]: Cytotoxic assay (MTT). The settings on record: human. The method, then:
(§1) Four human cancer cell lines (A549, MCF-7, HepG2, and HL-60 cells), together with one noncancerous cell line, the human bronchial epithelial cells Beas-2B, were used in the cytotoxic activity assay. All cells were cultured in DMEM or RPMI- 1640 medium (HyClone, Logan, UT, USA), supplemented with 10% fetal bovine serum (HyClone) at 37 °C in a humidified atmosphere with 5% CO 2 . The cell survival assay was performed using the MTT method. Briefly, 100 μ L of a suspension of the adherent cells was seeded into each well of the 96 - well culture plates and allowed to adhere for 12 h before addition of the test compounds. The suspended cells were seeded at an initial density of 1 × 10^5 cells/mL immediately before the addition of the drug. Each tumor cell line was exposed for 48 h in triplicate to the test compounds at concentrations of 0.0625 , 0.32, 1.6, 8, and 40 μ M, with DDP (cis - platin, Sigma) and paclitaxel as positive controls. After incubation, culture supernatants were removed and exchanged with medium containing 0.5 mg/mL MTT. Then, the cells were incubated for 4 h at 37 °C in darkness , followed by the removal of the medium and adding 100 μ L dimethyl sulfoxide. The absorbance at 570 nm was detected and the data were expressed as the mean percentage of absorbance in treated vs. control cells.

The nature of data set [4]: Cytotoxic assay (MTT), noncancerous cell line. As to conditions: human, Beas-2B bronchial epithelial cells (noncancerous). The procedure: as §1
Data set [5] deals with Escherichia coli. Description: Antimicrobial (printed 'antifungal') bioassay. The data set is classed as cell-based. The method, then:
(§2) The tested pathogenic fungi, Staphylococcus aureus (MRSA), methicillin-sensitive Staphylococcus aureus (MSSA), Escherichia coli and Pseudomonas aeruginosa, were provided by Tongji Hospital of Tongji Medical College of Huazhong University of Science and Technology. All samples dissolved in MeOH were tested for antifungal activity in vitro by mycelial growth inhibitory rate method, a Poison Food Technique.
(§3) Potato dextrose agar (PDA) medium was used as the medium for all test fungi.
(§4) The media (100 ml) incorporating test samples were inoculated at the center of agar discs of the test fungi (4 mm diameter). Three replicate plates for each fungus were incubated at 26 °C for all test fungi. Control plates containing media mixed with MeOH (1 ml) were in cluded. After incubation for 24–48 h, the mycelial growth of fungi (mm) in both treated (T) and control (C) Petri dishes was measured diametrically in three different directions (decussation method) until the fungal growth in the control dishes was almost complete. The percentage of growth inhibition ( I) was calculated using the […]
(§5) Table S2. Antifungal Effects of Compounds 1−8 (MIC, μg/ml). fungi MRSA MSSA E. coli P. aeruginosa

For data set [6], the system named is Pseudomonas aeruginosa. Description: Antimicrobial (printed 'antifungal') bioassay. The class given is cell-based. The procedure: as §2, §3, §4, §5
The subject of data set [7] is methicillin-resistant Staphylococcus aureus (MRSA). Description: Antimicrobial (printed 'antifungal') bioassay. The data set is classed as cell-based. The method, then:
as §2, §3, §4, §5

Data set [8] relates to methicillin-sensitive Staphylococcus aureus (MSSA). Description: Antimicrobial (printed 'antifungal') bioassay. The class given is cell-based. The method, then: as §2, §3, §4, §5
Data set [9] has as its system methicillin-resistant Staphylococcus aureus (MRSA). The settings on record: cited from earlier work.

human recombinant AChE, sequence (P22303 32-614): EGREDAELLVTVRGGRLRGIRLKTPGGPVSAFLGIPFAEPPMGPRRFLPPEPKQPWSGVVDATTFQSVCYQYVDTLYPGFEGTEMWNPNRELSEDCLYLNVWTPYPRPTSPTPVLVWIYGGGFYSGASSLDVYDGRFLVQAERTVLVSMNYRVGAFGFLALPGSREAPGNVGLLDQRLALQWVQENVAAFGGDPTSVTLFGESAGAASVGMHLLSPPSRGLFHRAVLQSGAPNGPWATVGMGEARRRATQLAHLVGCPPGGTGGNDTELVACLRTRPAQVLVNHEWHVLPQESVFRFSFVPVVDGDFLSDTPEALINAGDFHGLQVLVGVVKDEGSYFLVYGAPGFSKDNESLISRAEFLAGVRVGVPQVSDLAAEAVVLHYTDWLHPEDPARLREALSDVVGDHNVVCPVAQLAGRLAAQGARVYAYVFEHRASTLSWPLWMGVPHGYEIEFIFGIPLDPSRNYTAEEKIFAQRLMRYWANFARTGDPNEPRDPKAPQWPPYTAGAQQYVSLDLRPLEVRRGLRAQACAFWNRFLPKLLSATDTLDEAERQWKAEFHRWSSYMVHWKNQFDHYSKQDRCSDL

Take `C=C(C)[C@@H]1[C@H](OC(C)=O)C[C@@]2(C)Oc3cc(C)oc(=O)c3C[C@@H]2[C@@]1(C)[C@H](CC(=O)OC)OC(C)=O` [Compound 3, Asperversin C]: in data set [1], the inhibition at 100 µM came to 27.6%. For the same molecule, in data set [1], the IC50 is more than 40 µM. Also, the IC50 at 48 h in [2], in [3] (HL-60 cells), in data set [3] (HepG2 cells), in data set [3] (MCF-7 cells) and in data set [4] was more than 40 µM each time. Besides, the MIC in data set [5] (E. coli, read-out: MIC) is more than 100 µg/mL; in data set [6] (P. aeruginosa, read-out: MIC) it was more than 100 µg/mL; in data set [7] (read-out: MIC), more than 100 µg/mL; in data set [8] (read-out: MIC), more than 100 µg/mL.

As to `COC(=O)C[C@@H]1OC(C)(C)[C@@H]2[C@H](OC(C)=O)C[C@@]3(C)Oc4cc(C)oc(=O)c4C[C@@H]3[C@@]12C` [Compound 1, Asperversin A], the inhibition at 100 µM in data set [1] came to 35.7%. In addition, in data set [1], the IC50 was more than 40 µM. For the same molecule, the IC50 at 48 h in data set [2], in [3] (HL-60 cells), in data set [3] (HepG2 cells), in [3] (MCF-7 cells) and in data set [4] was more than 40 µM each time. In addition, the MIC in data set [5] (E. coli, read-out: MIC) was more than 100 µg/mL; in data set [6] (P. aeruginosa, read-out: MIC) it was more than 100 µg/mL; in [7] (read-out: MIC), more than 100 µg/mL; in [8] (read-out: MIC), more than 100 µg/mL.

With `Cc1cc2c(c(=O)o1)C[C@@H]1[C@@]3(C)[C@@H](O)CC(=O)OC(C)(C)[C@@H]3CC[C@@]1(C)O2` [Compound 4, Asperversin D], in data set [1], the inhibition at 100 µM was found to be 50.2%. In addition, the IC50 in [1] was more than 40 µM. For the same molecule, the 50% inhibitory concentration (IC50) at 48 h in data set [2], in data set [3] (HL-60 cells), in data set [3] (HepG2 cells), in data set [3] (MCF-7 cells) and in data set [4] was more than 40 µM throughout. The MIC in data set [5] (E. coli, read-out: MIC) is more than 100 µg/mL; in data set [6] (P. aeruginosa, read-out: MIC), more than 100 µg/mL; in data set [7] (read-out: MIC) it was more than 100 µg/mL; in data set [8] (read-out: MIC) it was more than 100 µg/mL.

In the case of `CC(=O)OC1CC2(C)Oc3cc(C)oc(=O)c3CC2C2(C)C(O)CC(=O)OC(C)(C)C12` (stereo not drawn) [Compound 5, Asperversin E], the inhibition at 100 µM in [1] was determined as 48.7%. Besides, in [1], the IC50 was more than 40 µM. For the same molecule, the IC50 at 48 h in data set [2], in [3] (HL-60 cells), in [3] (HepG2 cells), in data set [3] (MCF-7 cells) and in [4] was more than 40 µM throughout. Besides, the minimum inhibitory concentration (MIC) was more than 100 µg/mL in [5] (E. coli, read-out: MIC); more than 100 µg/mL in data set [6] (P. aeruginosa, read-out: MIC); more than 100 µg/mL in [7] (read-out: MIC); more than 100 µg/mL in [8] (read-out: MIC).

With Apiroaspertrione A, the “activity against MRSA (in words)” value in data set [9] was “effective activity”.

With `CC(=O)O[C@@H]1C[C@@]2(C)Oc3cc(C)oc(=O)c3C[C@@H]2[C@@]2(C)[C@H](CC(=O)O)OC(C)(C)[C@H]12` [Compound 2, Asperversin B], the inhibition at 100 µM in data set [1] stood at 36.2%. Further, the IC50 in data set [1] is more than 40 µM. Besides, the IC50 at 48 h in data set [2], in data set [3] (HL-60 cells), in data set [3] (HepG2 cells), in data set [3] (MCF-7 cells) and in data set [4] was more than 40 µM in each case. For the same molecule, the MIC in data set [5] (E. coli, read-out: MIC) was more than 100 µg/mL; in [6] (P. aeruginosa, read-out: MIC) it was more than 100 µg/mL; in data set [7] (read-out: MIC), more than 100 µg/mL; in data set [8] (read-out: MIC) it was more than 100 µg/mL.

Regarding `Cc1cc2c(c(=O)o1)C[C@@H]1[C@@]3(C)[C@@H](O)CC(=O)OC(C)(C)[C@@H]3[C@H](O)C[C@@]1(C)O2` [Compound 8, asperdemin], the inhibition at 100 µM in data set [1] was 25.3%. For the same molecule, in [1], the IC50 was more than 40 µM. Moreover, the IC50 at 48 h in data set [2], in data set [3] (HL-60 cells), in [3] (HepG2 cells), in [3] (MCF-7 cells) and in [4] was more than 40 µM throughout. The MIC in [5] (E. coli, read-out: MIC) is more than 100 µg/mL; in [6] (P. aeruginosa, read-out: MIC), more than 100 µg/mL; in [7] (read-out: MIC), more than 100 µg/mL; in [8] (read-out: MIC), more than 100 µg/mL.

`CC(=O)O[C@H]1CC(=O)OC(C)(C)[C@@H]2[C@H](OC(C)=O)C[C@@]3(C)Oc4cc(C)oc(=O)c4C[C@@H]3[C@@]12C` [Compound 6, Asperversin F]: in data set [1], the inhibition at 100 µM came to 62.9%. Besides, in data set [1], the IC50 was more than 40 µM. In addition, the IC50 at 48 h in data set [2], in [3] (HL-60 cells), in data set [3] (HepG2 cells), in [3] (MCF-7 cells) and in data set [4] was more than 40 µM throughout. Also, the MIC in data set [5] (E. coli, read-out: MIC) is more than 100 µg/mL; in data set [6] (P. aeruginosa, read-out: MIC), more than 100 µg/mL; in data set [7] (read-out: MIC), more than 100 µg/mL; in [8] (read-out: MIC), more than 100 µg/mL.

On to `CN[C@H](CC(C)C)C(=O)N[C@H]1C(=O)N[C@@H](CC(N)=O)C(=O)N[C@H]2C(=O)N[C@H]3C(=O)N[C@H](C(=O)N[C@H](C(=O)O)c4cc(O)cc(O)c4-c4cc3ccc4O)[C@H](O)c3ccc(c(Cl)c3)Oc3cc2cc(c3O[C@@H]2O[C@H](CO)[C@@H](O)[C@H](O)[C@H]2O[C@H]2C[C@](C)(N)[C@H](O)[C@H](C)O2)Oc2ccc(cc2Cl)[C@H]1O` [vancomycin, reference compound], for which the MIC in data set [5] was found to be 0.5 µg/mL (≈ 0.345 µM); in data set [6] it was 0.8 µg/mL (≈ 0.552 µM); in data set [7], 1.2 µg/mL (≈ 0.828 µM); in [8], 0.5 µg/mL (≈ 0.345 µM).

`CC(=O)OC1CC2(C)Oc3cc(C)oc(=O)c3CC2C2(C)C=CC(=O)C(C)(C)C12` (stereo not drawn) [Compound 7, Asperversin G]: the inhibition at 100 µM in [1] was 92.4%. Further, the IC50 in data set [1] is 13.6 µM. For the same molecule, the IC50 at 48 h in data set [2], in data set [3] (HL-60 cells), in data set [3] (HepG2 cells), in [3] (MCF-7 cells) and in [4] was more than 40 µM in each case. The MIC in data set [5] (E. coli, read-out: MIC) is more than 100 µg/mL; in data set [6] (P. aeruginosa, read-out: MIC), more than 100 µg/mL; in data set [7] (read-out: MIC) it was more than 100 µg/mL; in data set [8] (read-out: MIC) it was more than 100 µg/mL.
